Reference: publication PMC10380377 (International Journal of Molecular Sciences, 2023)
Positions of bridges follow the written chain, without caps; N, C: chain ends. Residues, ends and D or L forms follow the SMILES beside them.

What was measured:
[1] = biological target: T1, human Kv11.1 (Homo sapiens, UniProt Q12809); experiment: in vitro; details: pH 7.2
[2] = biological target: T2, human Kv10.1 (Homo sapiens, UniProt O95259); experiment: cell-based
T2 construct: expressed in transfected cells; host or cells: Xenopus laevis oocytes injected with cRNA (pSGEM clone, T7 transcription)
T2 sequence (O95259 1-989): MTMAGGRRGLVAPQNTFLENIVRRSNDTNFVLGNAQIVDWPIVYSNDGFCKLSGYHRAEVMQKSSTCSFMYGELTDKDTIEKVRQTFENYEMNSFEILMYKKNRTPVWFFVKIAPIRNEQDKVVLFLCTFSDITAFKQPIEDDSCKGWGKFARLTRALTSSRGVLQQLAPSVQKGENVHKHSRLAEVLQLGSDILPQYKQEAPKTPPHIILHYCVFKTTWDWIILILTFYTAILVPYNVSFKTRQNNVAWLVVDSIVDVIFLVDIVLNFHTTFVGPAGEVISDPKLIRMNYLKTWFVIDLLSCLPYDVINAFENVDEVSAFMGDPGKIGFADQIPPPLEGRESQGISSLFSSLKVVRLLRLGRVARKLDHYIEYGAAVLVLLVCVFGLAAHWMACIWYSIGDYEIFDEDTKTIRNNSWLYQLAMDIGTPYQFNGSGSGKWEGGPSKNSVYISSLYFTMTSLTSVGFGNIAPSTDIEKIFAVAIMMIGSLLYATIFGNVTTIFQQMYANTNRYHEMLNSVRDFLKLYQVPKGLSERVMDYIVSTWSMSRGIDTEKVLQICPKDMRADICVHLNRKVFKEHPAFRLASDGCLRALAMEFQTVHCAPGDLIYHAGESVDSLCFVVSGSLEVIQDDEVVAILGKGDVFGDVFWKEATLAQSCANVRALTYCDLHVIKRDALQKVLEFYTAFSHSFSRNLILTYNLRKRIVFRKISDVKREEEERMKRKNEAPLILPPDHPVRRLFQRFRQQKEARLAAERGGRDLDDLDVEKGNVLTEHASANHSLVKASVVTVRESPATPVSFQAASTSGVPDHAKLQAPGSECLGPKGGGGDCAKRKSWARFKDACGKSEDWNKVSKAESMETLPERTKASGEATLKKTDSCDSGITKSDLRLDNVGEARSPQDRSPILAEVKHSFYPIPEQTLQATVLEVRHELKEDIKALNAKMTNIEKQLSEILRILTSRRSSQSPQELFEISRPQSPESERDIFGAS

[3] = biological target: T3, human Kv1.6 (Homo sapiens, UniProt P17658); experiment: cell-based; type: cell-based
T3 construct: expressed in transfected cells; host or cells: Xenopus laevis oocytes injected with cRNA (pSGEM clone, T7 transcription)

[4] = biological target: T1, human Kv11.1
[5] = system: Kv10.1 potassium channel; type: cell-based, human

T3 sequence (P17658 whole entry): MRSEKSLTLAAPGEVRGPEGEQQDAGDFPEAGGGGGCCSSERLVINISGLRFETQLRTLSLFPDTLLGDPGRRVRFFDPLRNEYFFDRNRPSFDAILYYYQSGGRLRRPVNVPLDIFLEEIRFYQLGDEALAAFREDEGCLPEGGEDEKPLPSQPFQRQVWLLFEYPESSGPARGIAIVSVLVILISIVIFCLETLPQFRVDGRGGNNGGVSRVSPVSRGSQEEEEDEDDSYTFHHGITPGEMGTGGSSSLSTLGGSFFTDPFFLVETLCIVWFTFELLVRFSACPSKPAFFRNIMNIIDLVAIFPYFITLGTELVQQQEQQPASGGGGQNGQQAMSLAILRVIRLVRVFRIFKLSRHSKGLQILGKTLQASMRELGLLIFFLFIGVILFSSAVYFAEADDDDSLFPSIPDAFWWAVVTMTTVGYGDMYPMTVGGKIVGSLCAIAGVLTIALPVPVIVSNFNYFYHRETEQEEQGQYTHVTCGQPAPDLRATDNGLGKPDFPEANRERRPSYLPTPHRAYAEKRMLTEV
T1 sequence (Q12809 whole entry): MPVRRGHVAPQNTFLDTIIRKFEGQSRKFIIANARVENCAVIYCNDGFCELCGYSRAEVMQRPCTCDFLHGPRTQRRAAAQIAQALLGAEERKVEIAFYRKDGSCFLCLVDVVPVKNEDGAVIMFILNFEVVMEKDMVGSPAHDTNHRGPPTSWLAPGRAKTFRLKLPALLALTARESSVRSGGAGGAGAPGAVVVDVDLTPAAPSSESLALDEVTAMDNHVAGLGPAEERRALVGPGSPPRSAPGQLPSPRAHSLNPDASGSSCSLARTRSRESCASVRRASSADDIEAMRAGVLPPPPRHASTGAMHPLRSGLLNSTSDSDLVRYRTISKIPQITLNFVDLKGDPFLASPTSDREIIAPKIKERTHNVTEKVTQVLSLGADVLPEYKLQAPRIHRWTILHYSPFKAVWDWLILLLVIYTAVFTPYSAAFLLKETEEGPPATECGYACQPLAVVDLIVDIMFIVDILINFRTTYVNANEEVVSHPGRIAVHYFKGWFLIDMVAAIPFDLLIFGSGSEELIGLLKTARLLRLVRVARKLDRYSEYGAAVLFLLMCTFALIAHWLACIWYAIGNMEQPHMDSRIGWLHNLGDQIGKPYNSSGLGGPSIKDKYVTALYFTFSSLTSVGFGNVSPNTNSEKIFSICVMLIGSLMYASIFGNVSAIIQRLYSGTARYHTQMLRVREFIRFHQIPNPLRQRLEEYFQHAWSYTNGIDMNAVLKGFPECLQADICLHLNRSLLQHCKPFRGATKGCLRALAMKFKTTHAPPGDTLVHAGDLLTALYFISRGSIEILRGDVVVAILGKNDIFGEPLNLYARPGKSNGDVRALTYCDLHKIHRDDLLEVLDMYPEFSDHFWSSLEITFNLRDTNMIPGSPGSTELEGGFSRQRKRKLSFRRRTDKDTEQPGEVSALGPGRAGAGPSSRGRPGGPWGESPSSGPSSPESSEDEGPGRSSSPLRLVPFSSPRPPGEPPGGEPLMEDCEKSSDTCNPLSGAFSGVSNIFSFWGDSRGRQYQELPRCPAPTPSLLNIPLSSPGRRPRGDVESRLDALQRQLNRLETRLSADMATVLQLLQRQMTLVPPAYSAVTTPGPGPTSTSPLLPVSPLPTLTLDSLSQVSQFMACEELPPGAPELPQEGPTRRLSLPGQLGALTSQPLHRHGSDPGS

SMILES: CC[C@H](C)[C@H](NC(=O)[C@@H]1CSSC[C@@H]2NC(=O)[C@H](C(C)C)NC(=O)[C@H](CC(C)C)NC(=O)CNC(=O)[C@H](CC(C)C)NC(=O)CNC(=O)[C@@H]3CCCN3C(=O)[C@H](CC(C)C)NC(=O)CNC(=O)[C@@H]3CSSC[C@H](NC(=O)[C@H](C)NC(=O)CNC(=O)[C@H](CCCNC(=N)N)NC(=O)[C@H](CSSC[C@H](NC(=O)CN)C(=O)NCC(=O)N[C@@H](C(C)C)C(=O)N[C@@H](CC(=O)O)C(=O)NCC(=O)N[C@@H](CCC(N)=O)C(=O)N[C@@H](Cc4ccccc4)C(=O)N3)NC2=O)C(=O)N[C@@H](Cc2ccccc2)C(=O)N[C@@H](CC(C)C)C(=O)N[C@@H](C(C)C)C(=O)N1)C(=O)N[C@@H](Cc1ccc(O)cc1)C(=O)N[C@H](C(=O)N1CCC[C@H]1C(=O)O)[C@@H](C)CC [κO-SrVIA] (H-GCGVDGQFCGLPGLGLVCCRGACFLVCIYIP-OH; disulfide 2-19, 9-23, 18-27)
- inhibition at 0.4 µM [1]: 10%
- Hill coefficient [2]: 1.86 ± 0.25
- inhibition at 0.4 µM ([2]; read-out: inhibitory activity): 10%
- Hill coefficient [3]: 3.35 ± 0.44
- effect on Kv1.6 [3]: no effect
- inhibition at 4 µM [3]: < 50%
- Hill coefficient [4]: 2.85 ± 0.46
- inhibitory activity on the Kv10.1 channel [5]: the only fraction that had inhibitory activity on the Kv10.1 channel
